According to patent US20180327367A1, “MACROCYCLIC BROAD SPECTRUM ANTIBIOTICS” (priority 2015, published 2018):
≈ marks a conversion by molar mass, not a printed value. Where two headings read alike, the source gives them in different places.

What was measured:
[1] = test system: Methicillin Resistant Staphylococcus aureus strain USA 300, NRS384; experiment: Minimum inhibitory concentration, broth micro-dilution (CLSI), S. aureus; type: cell-based; conditions: Staphylococcus aureus, MRSA / NRS 384 / USA300, 22 h, 35° C., 22 hours
Method in brief: (§1)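 Ten-point 2-fold series began at 4 μg/mL in protocol 2 and 0.5 μg/mL in protocol 3, in cation-adjusted MHB plus 0.002% Tween-80. Bacteria added to OD600 0.0005 final and incubated at 35° C for 22 hours per CLSI microdilution.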

[2] = test system: Escherichia coli MC4100 harboring the IMP4213 (E. coli IMP); experiment: microbe, parasite or virus in culture; type: cell-based; conditions: Escherichia coli, 22 h, read-out: MIC (μg/mL) E. coli IMP, E. coli MC4100 IMP4213, increased outer-membrane permeability; 35° C., 22 hours
Method in brief: as §1

[3] = test system: Escherichia coli ATCC 25922; experiment: Minimum inhibitory concentration, broth micro-dilution (CLSI), E. coli; type: cell-based; conditions: Escherichia coli, ATCC25922, 22 h, 35° C., 22 hours
[4] = biological target: T1, SpsB (Staphylococcus aureus signal peptidase) (Staphylococcus aureus, UniProt P0A070); experiment: cell-based; type: biochemical; conditions: SpsB IC50, whole-cell S. aureus (USA300 background, overexpressing SpsB) as SpsB source; fluorogenic peptide substrate, kinetic read 30 min
T1 construct: This assay uses a suspension of Staphylococcus aureus cells as a source of SpsB instead of recombinant SpsB protein; endogenous in cells; host or cells: S. aureus, USA300 background, overexpressing SpsB (whole-cell suspension from frozen pellets)
Method in brief: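 Cleavage of an internally quenched (Dabcyl)βAla-KPAKAAE(Edans) peptide, added as 20 μM solution mixed 1:1 with cells, was followed for 30 min at 340/490 nm. SpsB came from a suspension of SpsB-overexpressing USA300 S. aureus in Tween-80-containing PBS buffer. Slopes plotted against 3-fold compound dilutions gave IC50.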

[5] = MRSA USA 300 NRS384, read-out: MIC (μg/mL) S. aureus
[6] = E. coli ATCC 25922, read-out: MIC (μg/mL) E. coli
[7] = read-out: MIC (μg/mL) S. aureus, MRSA USA 300 NRS384
[8] = read-out: MIC (μg/mL) E. coli, E. coli ATCC 25922

T1 sequence (P0A070 whole entry): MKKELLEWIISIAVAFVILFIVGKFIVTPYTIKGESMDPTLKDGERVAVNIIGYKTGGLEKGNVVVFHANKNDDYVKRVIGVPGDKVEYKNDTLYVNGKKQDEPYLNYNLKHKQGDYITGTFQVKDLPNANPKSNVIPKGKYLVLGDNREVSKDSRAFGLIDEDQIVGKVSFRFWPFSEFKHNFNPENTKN

SMILES | MIC [1, 5] [µg/mL] | MIC [2] [µg/mL] | MIC [3, 6] [µg/mL] | IC50 [4] [nM] | MIC [1, 7] [µg/mL] | MIC [3, 8] [µg/mL]
CCCCCCCOc1cc(F)c(C(=O)N[C@@H](CCN)C(=O)N(C)[C@@H]2C(=O)N[C@@H](C)C(=O)N[C@H](C(=O)NCC#N)Cc3ccc(OCCN)c(c3)-c3cc2ccc3OCCN)c(Cl)c1 [Compound 291] | 0.063 (≈ 0.0693 µM) | 0.0078 (≈ 0.00859 µM) | 0.19 (≈ 0.209 µM) | 1.3 |  | 
C[C@@H]1NC(=O)[C@@H](N(C)C(=O)[C@H](CCN)NC(=O)c2ccc(-c3ccc4c(c3)CCCC4)cc2Cl)c2ccc(OCCN)c(c2)-c2cc(ccc2OCCN)C[C@@H](C(=O)NCC#N)NC1=O [Compound 140] |  | 0.0078 (≈ 0.0086 µM) |  | 0.99 | 0.031 (≈ 0.0342 µM) | 0.13 (≈ 0.143 µM)
CCCCCCCCCC(=O)N[C@@H](CCN)C(=O)N(C)[C@@H]1C(=O)N[C@@H](C)C(=O)N[C@H](C(=O)NCC#N)Cc2ccc(OCCN)c(c2)-c2cc1ccc2OCCN [Compound 105] | 0.13 (≈ 0.164 µM) | 0.031 (≈ 0.0391 µM) | 8 (≈ 10.1 µM) | 0.82 |  | 
CCCCCCCCOc1ccc(C(=O)N[C@@H](CCN)C(=O)N(C)[C@@H]2C(=O)N[C@@H](C)C(=O)N[C@H](C(=O)NCC#N)Cc3ccc(OCCN)c(c3)-c3cc2ccc3OCCN)c(Cl)c1 [Compound 272] | 0.047 (≈ 0.052 µM) | 0.0078 (≈ 0.00862 µM) | 0.13 (≈ 0.144 µM) | 0.7 |  | 
CCCCCCCCCC(=O)NCC(=O)N[C@@H](CCN)C(=O)N(C)[C@@H]1C(=O)N[C@@H](C)C(=O)N[C@H](C(=O)NCC#N)Cc2ccc(OCCN)c(c2)-c2cc1ccc2OCCN [Compound 372] |  | 0.094 (≈ 0.111 µM) |  | 0.47 | 0.13 (≈ 0.153 µM) | 8 (≈ 9.42 µM)
CCCCCCCCc1cccc(C(=O)N[C@@H](CCCCN)C(=O)N(C)[C@@H]2C(=O)N[C@@H](C)C(=O)N[C@H](C(=O)NCC#N)Cc3ccc(OCCN)c(c3)-c3cc2ccc3OCCN)c1 [Compound 421] | 0.063 (≈ 0.0714 µM) | 0.063 (≈ 0.0714 µM) | 2 (≈ 2.27 µM) | 1.6 |  | 
CCCCCCCc1ccc(C(=O)N[C@@H](CCN)C(=O)N(C)[C@@H]2C(=O)N[C@@H](C)C(=O)N[C@H](C(=O)NCC#N)Cc3ccc(OCCN)c(c3)-c3cc2ccc3OCCN)c(C)c1 [Compound 198] | 0.063 (≈ 0.0738 µM) | 0.018 (≈ 0.0211 µM) | 0.24 (≈ 0.281 µM) | 0.72 |  | 
CCCCCCc1ccc(C(=O)N[C@@H](CCCCN)C(=O)N(C)[C@@H]2C(=O)N[C@@H](C)C(=O)N[C@H](C(=O)NCC#N)Cc3ccc(OCCN)c(c3)-c3cc2ccc3OCCN)c(C)c1 [Compound 199] | 0.031 (≈ 0.0357 µM) | 0.031 (≈ 0.0357 µM) | 3 (≈ 3.46 µM) | 0.73 |  | 
CCCCCCCc1ccc(C(=O)N[C@@H](CO)C(=O)N[C@@H](CCN)C(=O)N(C)[C@@H]2C(=O)N[C@@H](C)C(=O)N[C@H](C(=O)NCC#N)Cc3ccc(OCCN)c(c3)-c3cc2ccc3OCCN)cc1 [Compound 383] |  | 0.023 (≈ 0.0248 µM) |  | 0.88 | 0.018 (≈ 0.0194 µM) | 4 (≈ 4.31 µM)
CCCCCCCSc1ccc(C(=O)N[C@@H](CCN)C(=O)N(C)[C@@H]2C(=O)N[C@@H](C)C(=O)N[C@H](C(=O)NCC#N)Cc3ccc(OCCN)c(c3)-c3cc2ccc3OCCN)c(C)c1 [Compound 389] | 0.063 (≈ 0.0711 µM) | 0.031 (≈ 0.035 µM) | 0.25 (≈ 0.282 µM) | 0.81 |  | 
CCCCCCCCc1ccc(C(=O)N[C@@H](C)C(=O)N(C)[C@@H]2C(=O)N[C@@H](C)C(=O)N[C@H](C(=O)NCC#N)Cc3ccc(OCCN)c(c3)-c3cc2ccc3OCCN)c(C)c1 [Compound 243] | 0.094 (≈ 0.112 µM) | 0.031 (≈ 0.0369 µM) | 1.5 (≈ 1.79 µM) | 1.3 |  | 
CCCCCCCCCC(=O)NCCC(=O)N(C)[C@@H]1C(=O)N[C@@H](C)C(=O)N[C@H](C(=O)NCC#N)Cc2ccc(OCCN)c(c2)-c2cc1ccc2OCCN [Compound 464] | 1 (≈ 1.31 µM) | > 4 | > 64 | 6 |  | 
CCCCCCc1ccc(C(=O)N[C@@H](CCN)C(=O)N(C)[C@@H]2C(=O)N[C@@H](C)C(=O)N[C@H](C(=O)NCC#N)Cc3ccc(OCCN)c(c3)-c3cc2ccc3OCCN)c(C)c1 [Compound 197] | 0.078 (≈ 0.0929 µM) | 0.011 (≈ 0.0131 µM) | 0.31 (≈ 0.369 µM) | < 0.5 |  | 
CCCCCCCc1cc(Cl)c(C(=O)N[C@@H](CCN)C(=O)N(C)[C@@H]2C(=O)N[C@@H](C)C(=O)N[C@H](C(=O)NCC#N)Cc3ccc(OCCN)c(c3)-c3cc2ccc3OCCN)c(Cl)c1 [Compound 226] | 0.094 (≈ 0.103 µM) | 0.012 (≈ 0.0132 µM) | 0.38 (≈ 0.418 µM) | 0.88 |  | 
CCCCCCOc1ccc(C(=O)N[C@@H](CCN)C(=O)N(C)[C@@H]2C(=O)N[C@@H](C)C(=O)N[C@H](C(=O)NCC#N)Cc3ccc(OCCN)c(c3)-c3cc2ccc3OCCN)c(Cl)c1 [Compound 271] | 0.047 (≈ 0.0536 µM) | 0.016 (≈ 0.0183 µM) | 0.31 (≈ 0.354 µM) | 1.1 |  | 
CCCCCc1ccc(CNCCC(=O)N(C)[C@@H]2C(=O)N[C@@H](C)C(=O)N[C@H](C(=O)NCC#N)Cc3ccc(OCCN)c(c3)-c3cc2ccc3OCCN)c(C)c1 [Compound 462] | 0.094 (≈ 0.12 µM) | 4 (≈ 5.11 µM) | 64 (≈ 81.7 µM) | 0.81 |  | 
C[C@@H]1NC(=O)[C@@H](N(C)C(=O)[C@H](CCN)NC(=O)c2ccc(-c3ccc(C4CCCCC4)cc3)cc2)c2ccc(OCCN)c(c2)-c2cc(ccc2OCCN)C[C@@H](C(=O)NCC#N)NC1=O [Compound 432] |  | 0.016 (≈ 0.0178 µM) |  | 1.4 | 0.094 (≈ 0.104 µM) | 0.13 (≈ 0.144 µM)
CCCCCCCCCCNCCS(=O)(=O)N[C@@H](CCN)C(=O)N(C)[C@@H]1C(=O)N[C@@H](C)C(=O)N[C@H](C(=O)NCC#N)Cc2ccc(OCCN)c(c2)-c2cc1ccc2OCCN [Compound 350] | 0.016 (≈ 0.0181 µM) | 0.063 (≈ 0.0712 µM) | 4 (≈ 4.52 µM) | 1 |  | 
CCCCCCCCc1ccc(C(=O)N[C@@H](CCCN)C(=O)N(C)[C@@H]2C(=O)N[C@@H](C)C(=O)N[C@H](C(=O)NCC#N)Cc3ccc(OCCCN)c(c3)-c3cc2ccc3OCCCN)cc1 [Compound 457] | 0.047 (≈ 0.0524 µM) | 0.0078 (≈ 0.0087 µM) | 0.25 (≈ 0.279 µM) | 0.64 |  | 
CCCCCCCCCCC(C)(C)C(=O)N[C@@H](CCN)C(=O)N(C)[C@@H]1C(=O)N[C@@H](C)C(=O)N[C@H](C(=O)NCC#N)Cc2ccc(OCCN)c(c2)-c2cc1ccc2OCCN [Compound 406] | 0.063 (≈ 0.0743 µM) | 0.031 (≈ 0.0366 µM) | 2 (≈ 2.36 µM) | 1.2 |  | 
CCCCCCCCCC(=O)N[C@@H](CO)C(=O)N[C@@H](CCN)C(=O)N(C)[C@@H]1C(=O)N[C@@H](C)C(=O)N[C@H](C(=O)NCC#N)Cc2ccc(OCCN)c(c2)-c2cc1ccc2OCCN [Compound 360] |  | 0.31 (≈ 0.353 µM) |  | 1.2 | 0.22 (≈ 0.25 µM) | 24 (≈ 27.3 µM)
CCCCCCCCc1ccc(C(=O)N[C@@H](CCO)C(=O)N(C)[C@@H]2C(=O)N[C@@H](C)C(=O)N[C@H](C(=O)NCC#N)Cc3ccc(OCCN)c(c3)-c3cc2ccc3OCCN)c(C)c1 [Compound 262] | 0.063 (≈ 0.0725 µM) | 0.02 (≈ 0.023 µM) | 1 (≈ 1.15 µM) | 0.9 |  | 
CCCCCCCCCCCC(=O)N[C@@H](CCO)C(=O)N(C)[C@@H]1C(=O)N[C@@H](C)C(=O)N[C@H](C(=O)NCC#N)Cc2ccc(OCCN)c(c2)-c2cc1ccc2OCCN [Compound 257] | 0.13 (≈ 0.158 µM) | 0.063 (≈ 0.0767 µM) | 12 (≈ 14.6 µM) | 0.92 |  | 
Cc1cc(CCC2CCCCC2)ccc1C(=O)N[C@@H](CCN)C(=O)N(C)[C@@H]1C(=O)N[C@@H](C)C(=O)N[C@H](C(=O)NCC#N)Cc2ccc(OCCN)c(c2)-c2cc1ccc2OCCN [Compound 204] | 0.031 (≈ 0.0358 µM) | 0.0078 (≈ 0.00901 µM) | 0.19 (≈ 0.219 µM) | 1.2 |  | 
